These results are taken from ChEMBL document CHEMBL1151040, “Synthetic inhibitors of interleukin-6 I: 2,3,7,8-tetrahydro-4-aryl-1H-cyclopent [e] imidazo [1,2-a]- pyridin-5(6H)-one and related compounds” (Bioorg Med Chem Lett, 1995).

In test [1] the test system is Mus musculus. Description: Effective dose of compound against serum interleukin 6 (IL-6) in C3H mice when administered intraperitoneally. The class given is functional. As to conditions: ip.
In test [2] the test system is Mus musculus. The test is described as follows: Inhibitory activity against LPS-induced interleukin 6 (IL-6) in the serum of C3H mice, at a dose of 25 mpk by oral administration. The class given is functional.
The test system of test [3] is WEHI265.1. Description: In vitro inhibitory activity against lipopolysaccharide (LPS)-induced interleukin 6 (IL-6) production in murine myelomonocytic leukemia (WEHI-265.1) cells. The class given is functional, cell-based. As to conditions: Mus musculus.
For test [4], the system named is WEHI265.1. The test is described as follows: In vitro inhibitory activity against lipopolysaccharide (LPS)-induced interleukin 6 production in murine myelomonocytic leukemia (WEHI-265.1) cells at a concentration of 10 uM. The class given is functional. As to conditions: Mus musculus.
The test system of test [5] is Mus musculus. Description: Inhibitory activity against LPS-induced interleukin 6 (IL-6) in the serum of C3H mice, at a dose of 25 mpk by intraperitoneal administration. The class given is functional. As to conditions: ip.
For test [6], the system named is WEHI265.1. Description: In vitro inhibitory activity against lipopolysaccharide (LPS) -induced IL-6 production in murine myelomonocytic uM. The class given is functional, Mus musculus.
Test [7] concerns Mus musculus. Description: Effective dose of compound against serum interleukin 6 (IL-6) in C3H mice when administered orally. The class given is functional. As to conditions: po.

For the compound `Nc1ccccc1-c1c2n(c3c(c1=O)CCC3)CCN2`, it took a dose of 4 mg/kg to reach the 50% effect level in test [1] (ED50). Further, at 25 mg/kg the inhibition in vivo in test [2] was 72%. In addition, the IC50 – broadly, the point on the concentration scale where inhibition reaches its midpoint – in test [3] was found to be 2 µM. At 10 µM the inhibition in test [4] was 82%. `O=[N+]([O-])c1ccccc1C1=C(O)C2=C(CCC2)N2CCN=C12`: the 50% effect level in test [1] (ED50) was put at a dose of 8 mg/kg. Moreover, the inhibition in vivo (usually the share of the control response that was lost under treatment) at 25 mg/kg in test [2] was 78%. The compound also registered an IC50 in test [3] of 6 µM. Besides, the inhibition (in general, the change of the read-out against control, counted positive when it falls) at 10 µM in test [4] was 73%. In test [3], `CCOC(=O)c1cccc(C2=C(O)C3=C(CCC3)N3CCN=C23)c1` came in with an IC50 of 0.6 µM. The same compound yielded an inhibition at 10 µM in test [4] of 83%. In the case of `CC(=O)Nc1ccccc1-c1c2n(c3c(c1=O)CCC3)CCN2`, the IC50 in test [3] was determined as 5 µM. Further, the inhibition at 10 µM in test [4] worked out at 74%.

As to `OC1=C(c2ccccc2C(F)(F)F)C2=NCCN2C2=C1CCC2`, the inhibition at 10 µM in test [4] came out at 90%. Same read-out and setting: with `OC1=CC2=NCCN2C2=C1CCC2` the figure was 38%; with `OC1=C(Sc2ccccc2)C2=NCCN2C2=C1CCC2`, 63%.

`O=c1c2c(n3c(c1-c1ccccc1)N(Cc1ccccc1)CC3)CCC2` came in with an inhibition at 10 µM in test [4] of 43%. The same measure, in the same setting: as for `CSC1=C(O)C2=C(CCC2)N2CCN=C12`, the figure is 77%; as for `OC1=C(c2ccccc2O)C2=NCCN2C2=C1CCC2`, 55%; as for `O=c1c2c(n3c(c1-c1ccccc1)SCC3)CCC2`, 52%. The same measure, in the same setting: with `CCOC(=O)C1=C(O)C2=C(CCC2)N2CCN=C12` the figure was 58%; with `OC1=C(c2ccccn2)C2=NCCN2C2=C1CCC2`, 55%. Take `O=c1c2c(n3c(c1-c1ccccc1Cl)NCC3)CCC2`: it took a dose of 0.5 mg/kg to reach the 50% effect level in test [1] (ED50). The compound also gave an IC50 in test [3] of 4 µM. The compound further gave an inhibition at 10 µM in test [4] of 90%. The compound `CN1CCn2c3c(c(=O)c(-c4ccccc4)c21)CCC3` displayed an inhibition at 10 µM in test [4] of 27%. Same read-out and setting: as for `O=C(O)c1cccc(C2=C(O)C3=C(CCC3)N3CCN=C23)c1`, the figure is 0%; as for `O=c1c2c(n3c(c1-c1ccccc1)OCC3)CCC2`, 20%.

In test [4], `OC1=C(c2cccnc2)C2=NCCN2C2=C1CCC2` gave an inhibition at 10 µM of 0%. For the compound `COc1ccccc1-c1c2n(c3c(c1=O)CCC3)CCN2`, the 50% effect level in test [1] (ED50) was put at a dose of 0.3 mg/kg. Further, the inhibition at 10 µM in test [4] amounted to 82%.

On to `OC1=C(c2ccccc2)C2=NCCN2C2=C1CCC2`, for which the ED50 (in general, the dose that gives a 50% effect, or the effect in half of the subjects) in test [1] turned out to be 0.35 mg/kg; in test [7], 32 mg/kg. Besides, the inhibition in vivo at 25 mg/kg was determined as 39% in test [2] and 77% in test [5]. Also, the IC50 in test [3] was determined as 0.2 µM. For the same compound, the Inhibition – broadly, the share of the control response that was lost under treatment – in test [6] came out at 74%.
